# Where a name gives a salt, the structure may show the parent alone.
# Molecular target: T1, wild-type human ALK (cytoplasmic domain, amino acids 1058-1620, N-terminal GST fusion) (Homo sapiens, UniProt Q9UM73)
# T1 construct: The cytoplasmic domain (amino acids 1058-1620) of wild-type human ALK; GST (N); made in house; host or cells: SF9 insect cells
# Test: ALK Inhibition in Enzyme Assay (Lance TR-FRET kinase assay)
# Type: biochemical
# Protocol: ALK Inhibition in Enzyme Assay
# Kinase activity of the purified protein was assessed using a Lance® TR-FRET assay. […] The reaction was allowed to proceed for 90 minutes at room temperature and was then terminated with 20 mM EDTA in 50 mM Tris (pH 7.5), 100 mM NaCl, 0.05% BSA, and 0.1% Tween-20. Phosphorylation of the peptide substrate was detected using the Lance® detection reagents streptavidin-allophycocyanin (SA-APC) and Eu-W1024 anti-phosphotyrosine antibody (PT66) from Perkin Elmer Life Sciences (Waltham, Mass.). The plates were read on a RUBY star plate reader (BMG LABTECH, Cary, N.C.) with an excitation wavelength of 320 nm.
# T1 sequence (Q9UM73 1058-1620): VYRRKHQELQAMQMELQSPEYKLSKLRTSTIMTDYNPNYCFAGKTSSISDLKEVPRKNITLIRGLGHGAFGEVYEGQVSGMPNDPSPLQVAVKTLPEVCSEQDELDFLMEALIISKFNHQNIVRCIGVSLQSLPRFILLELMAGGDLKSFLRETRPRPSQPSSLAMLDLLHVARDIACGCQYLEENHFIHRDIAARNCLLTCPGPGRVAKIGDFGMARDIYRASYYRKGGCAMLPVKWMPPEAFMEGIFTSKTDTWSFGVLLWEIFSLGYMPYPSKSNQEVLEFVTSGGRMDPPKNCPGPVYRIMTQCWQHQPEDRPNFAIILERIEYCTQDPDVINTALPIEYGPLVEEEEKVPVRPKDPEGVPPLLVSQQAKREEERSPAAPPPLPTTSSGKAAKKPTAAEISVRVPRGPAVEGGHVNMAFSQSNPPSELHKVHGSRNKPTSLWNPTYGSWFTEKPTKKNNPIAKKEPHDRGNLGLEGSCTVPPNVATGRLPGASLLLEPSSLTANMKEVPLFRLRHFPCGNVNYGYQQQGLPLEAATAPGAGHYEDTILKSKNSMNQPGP
row,IC50 [nM],Compound
1,100 to 1000,"CC(C)(O)C1CCN(CCOc2cc3c(cn2)[nH]/c(=N\C(=O)c2cccc(F)c2)n3[C@H]2CC[C@@H](C(=O)N3C[C@@H]4C[C@H]3CN4)CC2)CC1 (relative stereo) [Example 84, (E)-N-(1-(cis-4-(cis-2,5-Diazabicyclo[2.2.1]heptane-2-carbonyl)cyclohexyl)-6-(2-(4-(2-hydroxypropan-2-yl)piperidin-1-yl)ethoxy)-1H-imidazo[4,5-c]pyridin-2(3H)-ylidene)-3-fluorobenzamide]"
2,100 to 1000,"COC(=O)[C@H]1CC[C@@H](n2/c(=N/C(=O)c3ccccc3)[nH]c3cnccc32)CC1 [Example 1, cis-Methyl 4-((E)-2-(benzoylimino)-2,3-dihydro-1H-imidazo[4,5-c]pyridin-1-yl)cyclohexanecarboxylate]"
3,< 50,COC(=O)[C@H]1CC[C@@H](n2/c(=N/C(=O)c3ccc(F)cc3)[nH]c3ccc(CO)cc32)CC1 [Example 2]
4,< 50,"COC(=O)[C@H]1CC[C@@H](n2c(NC(=O)c3ccc(F)cc3)nc3ccc(CN4CCCCC4)cc32)CC1 [Example 3, cis-Methyl 4-(2-(4-fluorobenzoylimino)-6-(piperidin-1-ylmethyl)-2,3-dihydro-1H-benzo[d]imidazol-1-yl)cyclohexanecarboxylate]"
5,< 50,"COC(=O)[C@H]1CC[C@@H](n2c(NC(=O)c3ccccc3)nc3ccc(CO)cc32)CC1 [Example 4, cis-Methyl 4-(2-benzamido-6-(hydroxymethyl)-1H-benzo[d]imidazol-1-yl)cyclohexanecarboxylate]"
6,< 50,"COC(=O)[C@H]1CC[C@@H](n2c(NC(=O)c3ccccc3)nc3ccc(CN4CCOCC4)cc32)CC1 [Example 5, cis-Methyl 4-(2-benzamido-6-(morpholinomethyl)-1H-benzo[d]imidazol-1-yl)cyclohexanecarboxylate]"
7,< 50,"CCOC(=O)[C@H]1CC[C@@H](n2c(NC(=O)c3ccc(F)cc3)nc3ccc(CO)cc32)CC1 [Example 6, cis-Ethyl 4-(2-(4-fluorobenzamido)-6-(hydroxymethyl)-1H-benzo[D]imidazol-1-yl)cyclohexanecarboxylate]"
8,< 50,"CCOC(=O)[C@H]1CC[C@@H](n2/c(=N/C(=O)c3ccccc3)[nH]c3ccc(CO)cc32)CC1 [Example 7, cis-Ethyl 4-((E)-2-(benzoylimino)-6-(hydroxymethyl)-2,3-dihydro-1H-benzo[d]imidazol-1-yl)cyclohexanecarboxylate]"
9,< 50,"CCOC(=O)[C@H]1CC[C@@H](n2/c(=N/C(=O)c3ccc(F)cc3)[nH]c3ccc(CN4CCCCC4)cc32)CC1 [Example 8, cis-Ethyl 4-((E)-2-(4-fluorobenzoylimino)-6-(piperidin-1-ylmethyl)-2,3-dihydro-1H-benzo[d]imidazol-1-yl)cyclohexanecarboxylate]"
10,100 to 1000,"O=C(Nc1nc2ccc(CN3CCCCC3)cc2n1[C@H]1CC[C@@H](C(=O)O)CC1)c1ccc(F)cc1 [Example 10, cis-4-(2-(4-Fluorobenzamido)-6-(piperidin-1-ylmethyl)-1H-benzo[d]imidazol-1-yl)cyclohexanecarboxylic acid hydrochloride]"
11,< 50,"CCNC(=O)[C@H]1CC[C@@H](n2/c(=N/C(=O)c3ccc(F)cc3)[nH]c3ccc(CN4CCCCC4)cc32)CC1 [Example 11, (E)-N-(1-(cis-4-(Ethylcarbamoyl)cyclohexyl)-6-(piperidin-1-ylmethyl)-1H-benzo[d]imidazol-2(3H)-ylidene)-4-fluorobenzamide]"
12,100 to 1000,"COC(=O)[C@H]1CC[C@@H](n2/c(=N/C(=O)c3cccc(C(F)(F)F)c3)[nH]c3ccc(CO)cc32)CC1 [Example 12, cis-Methyl 4-((E)-6-(hydroxymethyl)-2-(3-(trifluoromethyl)benzoylimino)-2,3-dihydro-1H-benzo[d]imidazol-1-yl)cyclohexanecarboxyl]"
13,100 to 1000,"O=C(Nc1nc2ccc(CO)cc2n1C12CC3CC(CC(C3)C1)C2)c1ccccc1 [Example 13, N-(1-adamantyl-6-(hydroxymethyl)-1H-benzo[d]imidazol-2-yl)benzamide]"
14,< 50,"COC(=O)[C@H]1CC[C@@H](n2c(NC(=O)c3cccc(C(F)(F)F)c3)nc3ccc(CN4CCCCC4)cc32)CC1 [Example 14, cis-Methyl 4-(6-(piperidin-1-ylmethyl)-2-(3-(trifluoromethyl)benzamido)-1H-benzo[d]imidazol-1-yl)cyclohexanecarboxylate]"
15,< 50,"CNC(=O)[C@H]1CC[C@@H](n2/c(=N/C(=O)c3ccc(F)cc3)[nH]c3ccc(CN4CCCCC4)cc32)CC1 [Example 15, (E)-N-(1-(cis-4-(Methylcarbamoyl)cyclohexyl)-6-(piperidin-1-ylmethyl)-1H-benzo[d]imidazol-2(3H)-ylidene)-4-fluorobenzamide]"
16,50 to 100,O=C(/N=c1\[nH]c2ccc(CN3CCCCC3)cc2n1C12CC3CC(CC(C3)C1)C2)c1ccccc1 [Example 16]
17,< 50,"C=CCNS(=O)(=O)c1cccc(C(=O)/N=c2\[nH]c3ccc(CO)cc3n2C23CC4CC(CC(C4)C2)C3)c1 [Example 17, (E)-3-(N-Allylsulfamoyl)-N-(1-adamantyl-6-(hydroxymethyl)-1H-benzo[d]imidazol-2(3H)-ylidene)benzamide]"
18,< 50,"C=CCNS(=O)(=O)c1cccc(C(=O)Nc2nc3ccc(CN4CCCCC4)cc3n2C23CC4CC(CC(C4)C2)C3)c1 [Example 18, 3-(N-Allylsulfamoyl)-N-(1-adamantyl-6-(piperidin-1-ylmethyl)-1H-benzo[d]imidazol-2-yl)benzamide]"
19,< 50,"COC(=O)[C@H]1CC[C@@H](n2c(NC(=O)c3ccccc3)nc3ccc(CN4C(C)(C)CCCC4(C)C)cc32)CC1 [Example 19, cis-Methyl 4-(2-benzamido-6-((2,2,6,6-tetramethylpiperidin-1-yl)methyl)-1H-benzo[d]imidazol-1-yl)cyclohexanecarboxylate]"
20,< 50,"COC(=O)[C@H]1CC[C@@H](n2/c(=N/C(=O)c3ccccc3)[nH]c3cnc(OCCN4CCCCC4)cc32)CC1 [Example 20, cis-Methyl 4-((E)-2-(benzoylimino)-6-(2-(piperidin-1-yl)ethoxy)-2,3-dihydro-1H-imidazo[4,5-c]pyridin-1-yl)cyclohexanecarboxylate]"
21,1000 to 5000,"O=C(/N=c1\[nH]c2cnc(OCCN3CCCCC3)cc2n1[C@H]1CC[C@@H](C(=O)O)CC1)c1ccccc1 [Example 25, cis-4-((E)-2-(Benzoylimino)-6-(2-(piperidin-1-yl)ethoxy)-2,3-dihydro-1H-imidazo[4,5-c]pyridin-1-yl)cyclohexanecarboxylic acid]"
22,< 50,CCNC(=O)[C@H]1CC[C@@H](n2/c(=N/C(=O)c3ccccc3)[nH]c3cnc(OCCN4CCCCC4)cc32)CC1 [Example 26]
23,100 to 1000,"C=CCNS(=O)(=O)c1cc(C(=O)Nc2nc3ccc(CO)cc3n2[C@H]2CC[C@@H](C(=O)OC)CC2)ccc1F [Example 27, cis-Methyl 4-(2-(3-(N-allylsulfamoyl)-4-fluorobenzamido)-6-(hydroxymethyl)-1H-benzo[d]imidazol-1-yl)cyclohexanecarboxylate]"
24,100 to 1000,"COCCCNS(=O)(=O)c1cc(C(=O)Nc2nc3ccc(CO)cc3n2[C@H]2CC[C@@H](C(=O)OC)CC2)ccc1F [Example 28, cis-Methyl 4-(2-(4-fluoro-3-(N-(3-methoxypropyl)sulfamoyl)benzamido)-6-(hydroxymethyl)-1H-benzo[d]imidazol-1-yl)cyclohexanecarboxylate]"
25,< 50,"CC(C)(C)NC(=O)[C@H]1CC[C@@H](n2c(NC(=O)c3ccccc3)nc3ccc(CN4CCCCC4)cc32)CC1 [Example 29, N-(1-(cis-4-(tert-Butylcarbamoyl)cyclohexyl)-6-(piperidin-1-ylmethyl)-1H-benzo[d]imidazol-2-yl)benzamide]"
26,< 50,"O=C(/N=c1\[nH]c2ccc(CN3CCCCC3)cc2n1[C@H]1CC[C@@H](C(=O)NC2CC2)CC1)c1ccc(F)cc1 [Example 31, (E)-N-(1-(cis-4-(Cyclopropylcarbamoyl)cyclohexyl)-6-(piperidin-1-ylmethyl)-1H-benzo[d]imidazol-2(3H)-ylidene)-4-fluorobenzamide]"
27,< 50,"O=C(/N=c1\[nH]c2ccc(CN3CCCCC3)cc2n1[C@H]1CC[C@@H](C(=O)NCC2CC2)CC1)c1ccc(F)cc1 [Example 32, (E)-N-(1-(cis-4-(Cyclopropylmethylcarbamoyl)cyclohexyl)-6-(piperidin-1-ylmethyl)-1H-benzo[d]imidazol-2(3H)-ylidene)-4-fluorobenzamide]"
28,< 50,"C=CCNS(=O)(=O)c1cc(C(=O)Nc2nc3ccc(CN4CCCCC4)cc3n2[C@H]2CC[C@@H](C(=O)OC)CC2)ccc1F [Example 33, cis-Methyl 4-(2-(3-(N-allylsulfamoyl)-4-fluorobenzamido)-6-(piperidin-1-ylmethyl)-1H-benzo[d]imidazol-1-yl)cyclohexanecarboxylate]"
29,100 to 1000,"C=CCNS(=O)(=O)c1cc(C(=O)Nc2nc3ccc(CN4CCCCC4)cc3n2[C@H]2CC[C@@H](C(=O)O)CC2)ccc1F [Example 34, cis-4-(2-(3-(N-Allylsulfamoyl)-4-fluorobenzamido)-6-(piperidin-1-ylmethyl)-1H-benzo[d]imidazol-1-yl)cyclohexanecarboxylic acid]"
30,< 50,"CC(C)CNC(=O)[C@H]1CC[C@@H](n2/c(=N/C(=O)c3ccc(F)cc3)[nH]c3ccc(CN4CCCCC4)cc32)CC1 [Example 35, (E)-4-Fluoro-N-(1-(cis-4-(isobutylcarbamoyl)cyclohexyl)-6-(piperidin-1-ylmethyl)-1H-benzo[d]imidazol-2(3H)-ylidene)benzamide]"

# Source: patent US9115127B2 (AMGEN INC., priority 2010, dated 2015)
